One may read the IC50 as the concentration at which inhibition is half-maximal.

The results in this text go back to patent publication US11254668B2, “Pyrazolo[1,5-A]pyrazin-4-yl and related derivatives” (Pfizer Inc., priority 2017, dated 2022).

Like-named read-outs stand apart in the source and are kept apart here.

What all share (assay type): biochemical
The target in one experiment is TYK2 (Homo sapiens (Human), UniProt P29597). Kind of experiment: JAK Caliper Enzyme Assay at 1 mM ATP, TYK2. The procedure, abridged: (§1)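 Peptide phosphorylation by recombinant human kinase domain, 1 mM ATP, room temperature, EDTA-terminated, detected by microfluidic mobility shift; % effect normalised to DMSO baseline.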
Sequence of TYK2 (P29597 897-1176): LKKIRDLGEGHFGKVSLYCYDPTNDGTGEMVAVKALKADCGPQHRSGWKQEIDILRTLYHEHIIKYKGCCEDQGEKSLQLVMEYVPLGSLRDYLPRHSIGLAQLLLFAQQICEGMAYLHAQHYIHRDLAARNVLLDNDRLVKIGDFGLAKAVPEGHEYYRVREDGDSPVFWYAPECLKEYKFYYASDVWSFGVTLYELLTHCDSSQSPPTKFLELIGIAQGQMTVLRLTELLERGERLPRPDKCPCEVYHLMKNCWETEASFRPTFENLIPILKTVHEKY
The target of a further experiment is JAK2 (Homo sapiens (Human), UniProt O60674). As to the kind of experiment: JAK Caliper Enzyme Assay at 1 mM ATP, JAK2. Summed up:
as §1

For another experiment, the target named is JAK1 (Homo sapiens (Human), UniProt P23458). As to the kind of experiment: JAK Caliper Enzyme Assay at 1 mM ATP, JAK1. The procedure, abridged: (§2)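 Recombinant human kinase domains phosphorylate a fluorescent synthetic peptide at 1 mM ATP, room temperature, with enzyme and time tuned for 20-30% conversion; EDTA-stopped. Product/substrate separated by microfluidic mobility shift; percent effect versus DMSO and positive controls fitted to IC50 (nM).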
Sequence of JAK1 (P23458 875-1153): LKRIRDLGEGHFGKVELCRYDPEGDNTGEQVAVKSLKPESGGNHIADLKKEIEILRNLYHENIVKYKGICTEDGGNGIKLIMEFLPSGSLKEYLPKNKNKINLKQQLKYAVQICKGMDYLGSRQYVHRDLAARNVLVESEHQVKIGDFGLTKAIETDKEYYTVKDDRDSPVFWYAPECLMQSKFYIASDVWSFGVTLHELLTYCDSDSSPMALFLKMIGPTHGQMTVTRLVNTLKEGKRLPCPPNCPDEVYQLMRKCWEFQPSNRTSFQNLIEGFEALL

For a further experiment, the target named is JAK3 (Homo sapiens (Human), UniProt P52333). Kind of experiment: JAK Caliper Enzyme Assay at 1 mM ATP, JAK3. Summed up: as §2
Sequence of JAK3 (P52333 822-1111): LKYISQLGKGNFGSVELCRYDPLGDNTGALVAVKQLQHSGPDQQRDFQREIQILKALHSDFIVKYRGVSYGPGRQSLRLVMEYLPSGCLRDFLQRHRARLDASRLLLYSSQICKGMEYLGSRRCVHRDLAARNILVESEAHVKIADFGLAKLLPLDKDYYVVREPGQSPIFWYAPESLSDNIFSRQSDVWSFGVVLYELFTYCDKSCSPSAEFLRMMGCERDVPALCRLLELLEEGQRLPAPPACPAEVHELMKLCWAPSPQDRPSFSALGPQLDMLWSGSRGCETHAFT

Sequence of JAK2 (O60674 849-1124): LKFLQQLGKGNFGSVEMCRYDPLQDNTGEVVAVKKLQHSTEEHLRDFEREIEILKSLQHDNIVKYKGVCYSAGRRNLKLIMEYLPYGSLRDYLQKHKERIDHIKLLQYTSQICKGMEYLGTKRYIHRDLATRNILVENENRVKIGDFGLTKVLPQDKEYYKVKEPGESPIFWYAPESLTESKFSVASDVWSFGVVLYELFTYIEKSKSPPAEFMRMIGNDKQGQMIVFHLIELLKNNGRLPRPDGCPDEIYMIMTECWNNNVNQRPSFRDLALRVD

Take `N#CC[C@]1(n2ncc(-c3cc(-c4cccc(N)n4)cc4ncccc34)n2)C[C@H](C#N)C1` [Example 357, trans-3-{4-[7-(6-aminopyridin-2-yl)quinolin-5-yl]-2H-1,2,3-triazol-2-yl}-3-(cyanomethyl)cyclobutanecarbonitrile]: the 50% inhibitory concentration (IC50) was 0.099 µM at TYK2, 0.67 µM on JAK2, 2.58 µM at JAK1 and above 10 µM at JAK3.
The matching figures for `N#CC[C@]1(n2ncc(-c3cc(-c4cccc(N)n4)cc4ncccc34)n2)C[C@@H](C#N)C1` [Example 358, cis-3-{4-[7-(6-aminopyridin-2-yl)quinolin-5-yl]-2H-1,2,3-triazol-2-yl}-3-(cyanomethyl)cyclobutanecarbonitrile]: 0.02 µM, 0.092 µM, 0.404 µM and 3.76 µM.
The matching figures for `N#CC[C@]1(n2ncc(-c3cc(-c4ccc(N)cn4)cc4ncccc34)n2)C[C@@H](C#N)C1` [Example 359, cis-3-{4-[7-(5-aminopyridin-2-yl)quinolin-5-yl]-2H-1,2,3-triazol-2-yl}-3-(cyanomethyl)cyclobutanecarbonitrile]: 0.013 µM, 0.069 µM, 0.321 µM and 6.7 µM.
The matching figures for `N#CC[C@]1(n2ncc(-c3cc(-c4ccc(N)cn4)cc4ncccc34)n2)C[C@H](C#N)C1` [Example 360, trans-3-{4-[7-(5-aminopyridin-2-yl)quinolin-5-yl]-2H-1,2,3-triazol-2-yl}-3-(cyanomethyl)cyclobutanecarbonitrile]: 0.04 µM, 0.354 µM, 1.72 µM and above 10 µM.
For the molecule `CS(=O)(=O)N1CC(CC#N)(n2ncc(-c3cc(-c4cccnc4N)cc4ncccc34)n2)C1` [Example 361, [3-{4-[7-(2-aminopyridin-3-yl)quinolin-5-yl]-2H-1,2,3-triazol-2-yl}-1-(methylsulfonyl)azetidin-3-yl]acetonitrile], the half-maximal inhibitory concentration (IC50) on TYK2 is 3.63 µM; at JAK2, above 10 µM; on JAK1, above 10 µM; at JAK3, above 10 µM.
`N#CC[C@]1(n2ncc(-c3cc(-c4cccnc4N)cc4ncccc34)n2)C[C@@H](C#N)C1` [Example 362, cis-3-{4-[7-(2-aminopyridin-3-yl)quinolin-5-yl]-2H-1,2,3-triazol-2-yl}-3-(cyanomethyl)cyclobutanecarbonitrile]: the IC50 on TYK2 is 1.96 µM; at JAK2 it was above 10 µM; at JAK1, above 10 µM; at JAK3, above 10 µM.
`N#CC[C@]1(n2ncc(-c3cc(-c4cccnc4N)cc4ncccc34)n2)C[C@H](C#N)C1` [Example 363, trans-3-{4-[7-(2-aminopyridin-3-yl)quinolin-5-yl]-2H-1,2,3-triazol-2-yl}-3-(cyanomethyl)cyclobutanecarbonitrile]: the IC50 at TYK2 was 6.84 µM; at JAK2, above 10 µM; at JAK1, above 10 µM; on JAK3 it was above 10 µM.
Turning to `CS(=O)(=O)N1CC(CC#N)(n2ncc(-c3cc(-c4ccc(N)nc4)cc4ncccc34)n2)C1` [Example 364, [3-{4-[7-(6-aminopyridin-3-yl)quinolin-5-yl]-2H-1,2,3-triazol-2-yl}-1-(methylsulfonyl)azetidin-3-yl]acetonitrile], the 50% inhibitory concentration (IC50) at TYK2 was 0.067 µM; on JAK2 it was 0.834 µM; on JAK1 it was 2.96 µM; on JAK3 it was above 10 µM.
As to `N#CC[C@]1(n2ncc(-c3cc(-c4ccc(N)nc4)cc4ncccc34)n2)C[C@H](C#N)C1` [Example 365, trans-3-{4-[7-(6-aminopyridin-3-yl)quinolin-5-yl]-2H-1,2,3-triazol-2-yl}-3-(cyanomethyl)cyclobutanecarbonitrile], the half-inhibitory concentration (IC50) on TYK2 is 0.103 µM; on JAK2, 0.938 µM; on JAK1 it was 2.66 µM; on JAK3 it was above 10 µM.
The matching figures for `N#CC[C@]1(n2ncc(-c3cc(-c4ccc(N)nc4)cc4ncccc34)n2)C[C@@H](C#N)C1` [Example 366, cis-3-{4-[7-(6-aminopyridin-3-yl)quinolin-5-yl]-2H-1,2,3-triazol-2-yl}-3-(cyanomethyl)cyclobutanecarbonitrile]: 0.026 µM, 0.167 µM, 0.52 µM and 8.16 µM.
The matching figures for `N#CC[C@]1(n2ncc(-c3cc(-c4ccnc(N)c4)cc4ncccc34)n2)C[C@H](C#N)C1` [Example 367, trans-3-{4-[7-(2-aminopyridin-4-yl)quinolin-5-yl]-2H-1,2,3-triazol-2-yl}-3-(cyanomethyl)cyclobutanecarbonitrile]: 0.093 µM, 1.29 µM, 2.8 µM and above 10 µM.
The matching figures for `CS(=O)(=O)c1ccc(-c2cc(-c3cnn([C@]4(CC#N)C[C@H](C#N)C4)n3)c3cccnc3c2)nc1` [Example 368, cis-3-(cyanomethyl)-3-(4-{7-[5-(methylsulfonyl)pyridin-2-yl]quinolin-5-yl}-2H-1,2,3-triazol-2-yl)cyclobutanecarbonitrile]: 0.015 µM, 0.042 µM, 0.525 µM and 7.25 µM.
For `CS(=O)(=O)c1ccc(-c2cc(-c3cnn([C@]4(CC#N)C[C@@H](C#N)C4)n3)c3cccnc3c2)nc1` [Example 369, trans-3-(cyanomethyl)-3-(4-{7-[5-(methylsulfonyl)pyridin-2-yl]quinolin-5-yl}-2H-1,2,3-triazol-2-yl)cyclobutanecarbonitrile], the half-maximal inhibitory concentration (IC50) is 0.055 µM on TYK2, 0.281 µM at JAK2, 3.51 µM at JAK1 and above 10 µM on JAK3.
Take `N#CC[C@]1(n2ncc(-c3cc(-c4cccc(C(=O)O)n4)cc4ncccc34)n2)C[C@H](C#N)C1` [Example 370, 6-(5-{2-[cis-3-cyano-1-(cyanomethyl)cyclobutyl]-2H-1,2,3-triazol-4-yl}quinolin-7-yl)pyridine-2-carboxylic acid]: the half-inhibitory concentration (IC50) on TYK2 is 0.03 µM; on JAK2 it was 0.345 µM; at JAK1, 2.29 µM; at JAK3 it was above 10 µM.
In the same order, the values of `N#CC[C@]1(n2ncc(-c3cc(-c4cccc(C(=O)O)n4)cc4ncccc34)n2)C[C@@H](C#N)C1` [Example 371, 6-(5-{2-[trans-3-cyano-1-(cyanomethyl)cyclobutyl]-2H-1,2,3-triazol-4-yl}quinolin-7-yl)pyridine-2-carboxylic acid] are 0.11 µM, 1.61 µM, 9.28 µM and above 10 µM.
For the molecule `CS(=O)(=O)Nc1cccc(-c2cc(-c3cnn(C4(CC#N)CC(C#N)C4)n3)c3cccnc3c2)n1` (stereo not drawn) [Example 372, N-[6-(5-{2-[cis-3-cyano-1-(cyanomethyl)cyclobutyl]-2H-1,2,3-triazol-4-yl}quinolin-7-yl)pyridin-2-yl]methanesulfonamide], the concentration for half-maximal inhibition (IC50) on TYK2 (JAK Caliper enzyme assay) is 0.021 µM; at JAK2 (JAK Caliper enzyme assay), 0.08 µM; on JAK1 (JAK Caliper enzyme assay), 0.6 µM; on JAK3 (JAK Caliper enzyme assay), 5.97 µM.
